Assay results published in patent US11267815B2, “Class of amino-substituted nitrogen-containing fused ring compounds, preparation method therefor, and use thereof” (SHANGHAI RINGENE BIOPHARMA CO., LTD., priority 2017, dated 2022).

What was measured:
[1] = system: EGFR, VEGFR, PDGFR, FGFR, RET, MET, Src, Lyn, Syk, MEK, CDK, RA, ROS; assay: Inhibitory activities on different kinases (selectivity); assay type: biochemical; settings: versus different kinases
Experimental: The inhibitory activities of the compounds of the present disclosure on different kinases such as EGFR, VEGFR, PDGFR, FGFR, RET, MET, Src, Lyn, Syk, MEK, CDK, RA, ROS, etc., were also determined.

[2] = Pharmacokinetics in rats or mice after intragastric and intravenous administration; assay type: in vivo, SD rats or BALB/c mice; settings: iv 3 mg/kg, intragastric 10 mg/kg
Experimental: (3) LC/MS/MS method was used to measure the drug concentration in plasma at different time points after the embodiment compounds were administered to the rats or mice by intragastric administration and intravenous injection respectively, so as to study the pharmacokinetic behavior of the compounds of the present disclosure in rats or mice and evaluate the pharmacokinetic characteristics thereof. […]

kinase selectivity [1]: greater than 100 times
Structure (SMILES): C=CC(=O)N1CCN(CCCc2cn3c(n2)c(-c2c(Cl)c(OC)cc(OC)c2Cl)cc2cnc(NC)nc23)CC1 [Embodiment 3, 1-(4-(3-(6-(2,6-dichloro-3,5-dimethoxyaniline)-2-(methylamine)imidazo[1′,2′:1,6]pyrido[2,3-d]pyrimidin-8-yl)propyl)piperazine-1-yl)prop-2-en-1-one]
absorption and metabolism properties in rats and mice [2]: good absorption and metabolism properties in rats and mice
